Results: patent publication US6849624B2, “Aromatic and heteroaromatic substituted amides” (Hoffmann-La Roche Inc., priority 2001, dated 2005)

Experiments:
human NK1 receptor [1] = biological target: T1, human NK1 receptor (Homo sapiens, UniProt P25103); test: [3H]substance P binding to human NK1 receptor in transfected CHO cells; settings: recombinant human NK1 receptor in CHO cells, [3H]substance P 0.6 nM; read-out: affinity (pKi) for the human NK1 receptor (converted)
T1 construct: expressed in transfected cells; host or cells: CHO cells (Semliki virus expression system)
Procedure: The affinities of the compounds 2-(3,5-bis-trifluoromethyl-phenyl)-N-[6-(1,1-dioxo-1λ^6-thiomorpholin-4-yl)-4-o-tolyl-pyridin-3-yl]-N-methyl-isobutyramide and 2-(3,5-bis-trifluoromethyl-phenyl)-N-[6-(1,1-dioxo-1λ^6-thiomorpholin-4-yl)-4-(4-fluoro-2-methyl-phenyl)-pyridin-3-yl]-N-methyl-isobutyramide for the human NK1 receptor were evaluated in Chinese Hamster Ovary (CHO) cells transfected with the human NK1 receptor (using the Semliki Virus expression system) and radiolabelled with [^3H]substance P (final concentration 0.6 nM). Binding assays were performed in HEPES buffer (50 mM, pH 7.4) containing BSA (0.04%), leupeptin (8 μg/ml), MnCl2 (3 mM) and phosphoramidon (2 μM). Binding assays consisted of 250 μl of membrane suspension (1.25×10^5 cells/assay tube), […] of buffer of displacing agent and 125 μl of [^3H] substance P. Displacement curves were determined with at least seven concentrations of the compound. The assay tubes were incubated for 60 min at room temperature after which time the tube contents were rapidly filtered under vacuum through GF/C filters presoaked for 60 min with PEI (0.3%) with 2×2 ml washes of HEPES buffer (50 mM, pH 7.4). The radioactivity retained on the filters was measured by scintillation counting. All assays were performed in triplicate in at least 2 separate experiments. […]

human NK1 receptor [2] = biological target: T1, human NK1 receptor; test: substance P induced Ca2+ influx in CHO cells expressing recombinant human NK1 receptor (FLIPR); type: cell-based; settings: increasing concentrations, CHO cells with recombinant human NK1 receptor
Description: The activity in vitro was examined by studying its effect on substance P induced Ca^2+ influxes in CHO cells expressing the recombinant human NK1 receptor. In these cells, substance P causes a concentration dependent influx of Ca^2+ which can be measured using FLIPR technology.

NK1 receptor = biological target: T2, NK1 receptor (Meriones unguiculatus, UniProt Q5DUB1); test: foot-tapping behavior induced in Gerbils by i.c.v. injection of an NK1 receptor agonist; type: in vivo; settings: Gerbil; for dose calculated to inhibit 50% of the foot-tapping behavior: oral administration; for total plasma concentration required to completely block the foot-tapping behavior: total plasma level
T2 construct: from tissue; host or cells: living gerbils (brain, i.c.v. agonist injection)
Procedure: In vivo 2-(3,5-bis-trifluoromethyl-phenyl)-N-[6-(1,1-dioxo-1λ^6-thiomorpholin-4-yl)-4-o-tolyl-pyridin-3-yl]-N-methyl-isobutyramide antagonizes foot-tapping behavior induced in Gerbils with intracerebroventricular (i.c.v.) injections of an NK1 receptor agonist. The dose for this compound calculated to inhibit 50% of the foot-tapping behavior following oral administration was 0.8 mg/kg. […] Similarly, 2-(3,5-bis-trifluoromethyl-phenyl)-N-[6-(1,1-dioxo-1λ^6-thiomorpholin-4-yl)-4-(4-fluoro-2-methyl-phenyl)-pyridin-3-yl]-N-methyl-isobutyramide also antagonized NK1 agonist-induced foot-tapping in Gerbils. The dose for this compound calculated to inhibit 50% of the foot-tapping behavior following oral administration was 0.1 mg/kg. The total plasma levels that are required to completely antagonize this behavior are less than 10 ng/ml.

[3] = pharmacokinetic parameters in rats; settings: rat, in vivo; for bioavailability: po; for half-life: read-out: terminal half-life (converted); for Vd: read-out: volume of distribution
Description: (§1) The pharmacokinetic parameters of both compounds have been evaluated in both rats and dogs.

[4] = pharmacokinetic parameters in dogs; settings: dog, in vivo; for Vd: read-out: volume of distribution
Description: as §1

T1 sequence (P25103 whole entry): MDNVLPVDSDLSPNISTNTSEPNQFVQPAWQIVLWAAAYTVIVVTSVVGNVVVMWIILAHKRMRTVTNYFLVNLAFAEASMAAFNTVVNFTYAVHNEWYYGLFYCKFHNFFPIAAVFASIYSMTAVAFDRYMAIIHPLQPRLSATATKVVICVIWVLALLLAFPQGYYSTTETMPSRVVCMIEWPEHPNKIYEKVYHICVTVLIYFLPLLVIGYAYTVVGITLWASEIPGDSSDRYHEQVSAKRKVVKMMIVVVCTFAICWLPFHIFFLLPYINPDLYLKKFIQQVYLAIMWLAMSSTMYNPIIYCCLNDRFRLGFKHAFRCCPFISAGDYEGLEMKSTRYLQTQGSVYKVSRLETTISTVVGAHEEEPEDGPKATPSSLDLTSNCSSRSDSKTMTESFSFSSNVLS
T2 sequence (Q5DUB1 whole entry): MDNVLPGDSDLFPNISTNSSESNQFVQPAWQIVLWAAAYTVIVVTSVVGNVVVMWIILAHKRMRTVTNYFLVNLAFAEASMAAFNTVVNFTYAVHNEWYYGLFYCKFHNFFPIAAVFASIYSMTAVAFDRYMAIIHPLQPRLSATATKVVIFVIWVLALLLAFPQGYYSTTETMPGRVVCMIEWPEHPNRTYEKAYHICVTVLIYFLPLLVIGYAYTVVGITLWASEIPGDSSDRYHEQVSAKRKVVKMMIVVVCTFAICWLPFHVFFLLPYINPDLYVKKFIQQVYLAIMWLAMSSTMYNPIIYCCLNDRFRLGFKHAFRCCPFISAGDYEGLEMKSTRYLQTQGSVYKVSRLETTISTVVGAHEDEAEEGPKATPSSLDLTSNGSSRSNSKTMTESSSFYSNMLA

SMILES	Ki (human NK1 receptor [1])	effect on substance P induced Ca2+ influx (human NK1 receptor [2])	dose calculated to inhibit 50% of the foot-tapping behavior (NK1 receptor)	total plasma concentration required to completely block the foot-tapping behavior (NK1 receptor)	clearance [3]	bioavailability [3]	half-life [3]	Vd [3]	clearance [4]	half-life [4]	Vd [4]	melting point
Cc1cc(F)ccc1-c1cc(N2CCS(=O)(=O)CC2)ncc1N(C)C(=O)C(C)(C)c1cc(C(F)(F)F)cc(C(F)(F)F)c1 [2-(3,5-Bis-trifluoromethyl-phenyl)-N-[6-(1,1-dioxo-1λ^6-thiomorpholin-4-yl)-4-(4-fluoro-2-methyl-phenyl)-pyridin-3-yl]-N-methyl-isobutyramide]	316 pM	inhibited the substance P induced Ca^2+ influx	0.1 mg/kg	less than 10 ng/ml	0.3 to 1.2 mL/min/kg	61%	21 h	0.7 L/kg	1.4 mL/min/kg	56 h	1.5 L/kg	
Cc1ccccc1-c1cc(N2CCS(=O)(=O)CC2)ncc1N(C)C(=O)C(C)(C)c1cc(C(F)(F)F)cc(C(F)(F)F)c1 [2-(3,5-Bis-trifluoromethyl-phenyl)-N-[6-(1,1-dioxo-1λ^6-thiomorpholin-4-yl)-4-o-tolyl-pyridin-3-yl]-N-methyl-isobutyramide]	1260 pM	inhibited the substance P induced Ca^2+ influx	0.8 mg/kg	10 ng/mL	4.7 mL/min/kg	18%	9 h	4 L/kg	5 mL/min/kg	8 h	4 L/kg	200 to 201 °C
